Measurements published in patent US8546381B2, “Bridged heterocyclic compounds and methods of use” (Medivation Technologies, Inc., priority 2008, dated 2013).

Assays:
[1] = molecular target: T1, human recombinant histamine H2 receptor (Homo sapiens, UniProt P25021); assay: Histamine H2 radioligand binding ([125I]Aminopotentidine); conditions: compound at 1 μM; inhibition of specific [125I]Aminopotentidine binding; read-out: Histamine Binding (1 μM) H2, Percentage Inhibition
T1 construct: expressed in transfected cells; host or cells: CHO-K1 cells
T1 sequence (P25021 whole entry): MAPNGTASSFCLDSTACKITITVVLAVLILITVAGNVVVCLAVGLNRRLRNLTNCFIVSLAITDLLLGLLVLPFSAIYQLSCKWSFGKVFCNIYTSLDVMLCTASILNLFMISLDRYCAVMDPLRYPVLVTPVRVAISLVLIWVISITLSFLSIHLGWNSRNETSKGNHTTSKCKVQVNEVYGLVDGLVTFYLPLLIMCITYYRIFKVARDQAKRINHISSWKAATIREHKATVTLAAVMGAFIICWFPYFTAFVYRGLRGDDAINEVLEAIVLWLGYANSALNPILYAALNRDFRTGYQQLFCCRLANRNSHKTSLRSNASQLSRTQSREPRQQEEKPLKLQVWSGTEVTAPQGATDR
Protocol: To evaluate in radioligand binding assays the activity of compounds of the invention, human recombinant histamine H2 receptor expressed in Chinese hamster ovary (CHO) K1 cells (Ruat, M., Proc. Natl. Acad. Sci. USA. 87(5):1658, 1990) in a 50 mM Phosphate buffer, pH 7.4 was used. Compounds of the invention were incubated with 0.1 nM [^125I]Aminopotentidine for 120 minutes at 25° C. Non-specific binding was estimated in the presence of 3 μM Tiotidine. Receptor proteins were filtered and washed, the filters were then counted to determine [^125I]Aminopotentidine specifically bound. Compounds were screened at 1 μM or lower, using 1% DMSO as vehicle. Biochemical assay results are presented as the percent inhibition of specific binding in Table 2.

[2] = molecular target: T2, human recombinant histamine H1 receptor (Homo sapiens, UniProt P35367); assay: Histamine H1 radioligand binding ([3H]Pyrilamine); conditions: compound at 1 μM; inhibition of specific [3H]Pyrilamine binding; read-out: Histamine Binding (1 μM) H1, Percentage Inhibition
T2 construct: expressed in transfected cells; host or cells: CHO cells
T2 sequence (P35367 whole entry): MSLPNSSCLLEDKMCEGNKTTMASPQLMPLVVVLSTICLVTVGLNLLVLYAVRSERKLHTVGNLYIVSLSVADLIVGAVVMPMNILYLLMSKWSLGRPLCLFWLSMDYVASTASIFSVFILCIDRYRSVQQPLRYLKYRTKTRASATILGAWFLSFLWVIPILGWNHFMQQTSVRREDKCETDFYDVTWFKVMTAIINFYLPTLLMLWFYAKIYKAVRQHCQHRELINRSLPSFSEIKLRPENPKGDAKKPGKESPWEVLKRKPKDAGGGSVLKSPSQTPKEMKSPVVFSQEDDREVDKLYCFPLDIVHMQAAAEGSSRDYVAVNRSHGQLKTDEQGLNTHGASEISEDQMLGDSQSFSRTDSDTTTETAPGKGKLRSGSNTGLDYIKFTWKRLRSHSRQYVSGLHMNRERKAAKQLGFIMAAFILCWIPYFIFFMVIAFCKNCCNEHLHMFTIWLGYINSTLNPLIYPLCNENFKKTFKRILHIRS
Protocol: To evaluate in radioligand binding assays the activity of compounds of the invention, human recombinant histamine H1 receptor expressed in Chinese hamster ovary (CHO) cells (De Backer, M. D. et al., Biochem. Biophys. Res. Comm. 197(3):1601, 1993) in a modified Tris-HCl buffer (50 mM Tris-HCl, pH 7.4, 2 mM MgCl2, 100 mM NaCl, 250 mM Sucrose) was used. Compounds of the invention were incubated with 1.2 nM [^3H]Pyrilamine for 180 minutes at 25° C. Non-specific binding was estimated in the presence of 1 μM pyrilamine. Receptor proteins were filtered and washed, the filters were then counted to determine [^3H]Pyrilamine specifically bound. Compounds were screened at 1 μM or lower, using 1% DMSO as vehicle. Biochemical assay results are presented as the percent inhibition of specific binding in Table 2.

[3] = molecular target: T3, human recombinant serotonin (5-Hydroxytryptamine) 5-HT2C receptor (Homo sapiens, UniProt P28335); assay: Serotonin 5-HT2C radioligand binding ([3H]Mesulergine); conditions: read-out: Serotonin 5-HT2C, inhibition of ligand binding (1 μM)
T3 construct: expressed in transfected cells; host or cells: CHO-K1 cells
T3 sequence (P28335 33-458): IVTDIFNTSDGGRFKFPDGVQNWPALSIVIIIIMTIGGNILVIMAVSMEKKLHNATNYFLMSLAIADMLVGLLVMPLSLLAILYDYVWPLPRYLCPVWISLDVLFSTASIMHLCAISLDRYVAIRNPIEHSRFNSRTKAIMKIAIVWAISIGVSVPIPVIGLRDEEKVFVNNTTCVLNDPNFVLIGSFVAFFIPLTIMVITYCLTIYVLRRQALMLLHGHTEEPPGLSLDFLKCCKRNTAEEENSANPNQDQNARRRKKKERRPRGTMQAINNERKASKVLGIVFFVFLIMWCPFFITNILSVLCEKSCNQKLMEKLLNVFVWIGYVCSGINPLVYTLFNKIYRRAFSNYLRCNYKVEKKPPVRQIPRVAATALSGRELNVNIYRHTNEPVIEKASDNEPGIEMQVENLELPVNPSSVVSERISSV
Protocol: To evaluate in radioligand binding assays the activity of compounds of the invention, human recombinant serotonin (5-Hydroxytryptamine) 5-HT2C receptor expressed in Chinese hamster ovary (CHO-K1) cells (Wolf, W. A. and Schutz, J. S., J. Neurochem. 69:1449, 1997) in a modified Tris-HCl buffer (50 mM Tris-HCl, pH 7.4, 0.1% Ascorbic Acid, 10 μM Pargyline) was used. Compounds of the invention were incubated with 1 nM [^3H]Mesulergine for 60 minutes at 25° C. Non-specific binding was estimated in the presence of 1 μM Mianserin. Receptor proteins were filtered and washed, the filters were then counted to determine [^3H]Mesulergine specifically bound. Compounds were screened at 1 μM or lower, using 1% DMSO as vehicle. Biochemical assay results are presented as the percent inhibition of specific binding in Table 4.

[4] = molecular target: T4, human recombinant serotonin (5-Hydroxytryptamine) 5-HT6 receptor (Homo sapiens, UniProt P50406); assay: Serotonin 5-HT6 radioligand binding ([3H]LSD); conditions: read-out: Serotonin 5-HT6, inhibition of ligand binding (1 μM)
T4 construct: expressed in transfected cells; host or cells: human HeLa cells
T4 sequence (P50406 whole entry): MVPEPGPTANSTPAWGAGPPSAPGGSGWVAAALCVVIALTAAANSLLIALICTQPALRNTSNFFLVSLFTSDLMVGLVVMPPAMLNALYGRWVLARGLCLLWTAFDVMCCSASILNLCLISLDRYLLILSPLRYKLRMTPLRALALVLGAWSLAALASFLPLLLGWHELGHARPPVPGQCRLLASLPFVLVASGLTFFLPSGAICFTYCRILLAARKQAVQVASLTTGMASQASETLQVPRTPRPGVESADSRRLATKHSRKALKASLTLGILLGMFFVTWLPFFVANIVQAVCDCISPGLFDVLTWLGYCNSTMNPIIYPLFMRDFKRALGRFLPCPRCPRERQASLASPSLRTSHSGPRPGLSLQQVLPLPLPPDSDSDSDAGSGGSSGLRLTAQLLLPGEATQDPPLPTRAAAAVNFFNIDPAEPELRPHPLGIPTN
Protocol: To evaluate in radioligand binding assays the activity of compounds of the invention, human recombinant serotonin (5-Hydroxytryptamine) 5-HT6 receptor expressed in human HeLa cells (Monsma, F. J. Jr. et al., Mol. Pharmacol. 43:320, 1993) in a modified Tris-HCl buffer (50 mM Tris-HCl, pH 7.4, 150 mM NaCl, 2 mM Ascorbic Acid, 0.001% BSA) was used. Compounds of the invention were incubated with 1.5 nM [3H]Lysergic acid diethylamide (LSD) for 120 minutes at 37° C. Non-specific binding was estimated in the presence of 5 μM Serotonin (5-HT). Receptor proteins were filtered and washed, the filters were then counted to determine [3H]LSD specifically bound. Compounds were screened at 1 μM or lower, using 1% DMSO as vehicle. Biochemical assay results are presented as the percent inhibition of specific binding in Table 4.

## CN1C2CCC1c1c(n(CCC(=O)O)c3ccc(Cl)cc13)C2 (stereo not drawn) [Compound 72]
[1]
  inhibition at 1 µM: 7%
[2]
  inhibition at 1 µM: 14%
[3]
  inhibition at 1 µM: -4%
[4]
  inhibition at 1 µM: -1%

## CN1C2CCC1c1c(n(CCC(N)=O)c3ccc(Cl)cc13)C2 (stereo not drawn) [Compound 73]
[1]
  inhibition at 1 µM: -1%
[2]
  inhibition at 1 µM: 10%
[3]
  inhibition at 1 µM: 5%
[4]
  inhibition at 1 µM: -4%

## CN1C2CCC1c1c(n(CCc3ccc(C(F)(F)F)nc3)c3cc(F)c(Cl)cc13)C2 (stereo not drawn) [Compound 77]
[1]
  inhibition at 1 µM: 7%
[2]
  inhibition at 1 µM: 32%
[3]
  inhibition at 1 µM: -8%
[4]
  inhibition at 1 µM: 21%

## Cc1ccc(CCn2c3c(c4cc(Cl)ccc42)C2CCC(C3)N2C)cn1 (stereo not drawn) [Compound 79]
[1]
  inhibition at 1 µM: 1%
[2]
  inhibition at 1 µM: 93%
[3]
  inhibition at 1 µM: 13%
[4]
  inhibition at 1 µM: 10%

## CN1C2CCC1c1c(n(CCc3cccnc3)c3ccc(Cl)cc13)C2 (stereo not drawn) [Compound 80]
[1]
  inhibition at 1 µM: -3%
[2]
  inhibition at 1 µM: 94%
[3]
  inhibition at 1 µM: 16%
[4]
  inhibition at 1 µM: 6%

## Cc1ccc2c(c1)c1c(n2CCc2cnc(C)nc2)CC2CCC1N2C (stereo not drawn) [Compound 81]
[1]
  inhibition at 1 µM: -9%
[2]
  inhibition at 1 µM: 51%
[3]
  inhibition at 1 µM: 25%
[4]
  inhibition at 1 µM: 12%

## Cc1ncc(CCn2c3c(c4cc(Cl)ccc42)C2CCC(C3)N2C)cn1 (stereo not drawn) [Compound 82]
[1]
  inhibition at 1 µM: -8%
[2]
  inhibition at 1 µM: 44%
[3]
  inhibition at 1 µM: 60%
[4]
  inhibition at 1 µM: 13%

## COc1ccc(CCn2c3c(c4cc(C)ccc42)C2CCC(C3)N2C)cc1 (stereo not drawn) [Compound 83]
[1]
  inhibition at 1 µM: 15%
[2]
  inhibition at 1 µM: 98%
[3]
  inhibition at 1 µM: 82%
[4]
  inhibition at 1 µM: 23%

## COc1ccc(CCn2c3c(c4cc(Cl)ccc42)C2CCC(C3)N2C)cc1 (stereo not drawn) [Compound 84]
[1]
  inhibition at 1 µM: 63%
[2]
  inhibition at 1 µM: 83%
[3]
  inhibition at 1 µM: 93%
[4]
  inhibition at 1 µM: 13%

## Cc1ccc2c(c1)c1c(n2CCCc2ccc(Cl)cc2)CC2CCC1N2C (stereo not drawn) [Compound 85]
[1]
  inhibition at 1 µM: 81%
[2]
  inhibition at 1 µM: 99%
[3]
  inhibition at 1 µM: 89%
[4]
  inhibition at 1 µM: 52%

## Cc1ccc2c(c1)c1c(n2CCc2cccnc2)CC2CCC1N2C (stereo not drawn) [Compound 86]
[1]
  inhibition at 1 µM: 26%
[2]
  inhibition at 1 µM: 99%
[3]
  inhibition at 1 µM: 72%
[4]
  inhibition at 1 µM: 60%

## CN1C2CCC1c1c(n(CCc3cncc(Cl)c3)c3ccc(Cl)cc13)C2 (stereo not drawn) [Compound 87]
[1]
  inhibition at 1 µM: 7%
[2]
  inhibition at 1 µM: 96%
[3]
  inhibition at 1 µM: 30%
[4]
  inhibition at 1 µM: 23%

## Cc1ccc2c(c1)c1c(n2CCc2cncc(Cl)c2)CC2CCC1N2C (stereo not drawn) [Compound 88]
[1]
  inhibition at 1 µM: 5%
[2]
  inhibition at 1 µM: 95%
[3]
  inhibition at 1 µM: 31%
[4]
  inhibition at 1 µM: 25%

## Cc1cncc(CCn2c3c(c4cc(Cl)ccc42)C2CCC(C3)N2C)c1 (stereo not drawn) [Compound 89]
[1]
  inhibition at 1 µM: -1%
[2]
  inhibition at 1 µM: 92%
[3]
  inhibition at 1 µM: 26%
[4]
  inhibition at 1 µM: 10%

## Cc1cncc(CCn2c3c(c4cc(C)ccc42)C2CCC(C3)N2C)c1 (stereo not drawn) [Compound 90]
[1]
  inhibition at 1 µM: -1%
[2]
  inhibition at 1 µM: 93%
[3]
  inhibition at 1 µM: 27%
[4]
  inhibition at 1 µM: 6%

## Cc1ccc2c(c1)c1c(n2CC(O)c2ccc(C)nc2)CC2CCC1N2C (stereo not drawn) [Compound 91]
[1]
  inhibition at 1 µM: 9%
[2]
  inhibition at 1 µM: 51%
[3]
  inhibition at 1 µM: -4%
[4]
  inhibition at 1 µM: -5%

## Cc1ccc(CCn2c3c(c4ccccc42)C2CCC(C3)N2C)cn1 (stereo not drawn) [Compound 92]
[1]
  inhibition at 1 µM: 11%
[2]
  inhibition at 1 µM: 54%
[3]
  inhibition at 1 µM: 9%
[4]
  inhibition at 1 µM: 3%

## Cc1ccc2c(c1)c1c(n2CC(=O)N2CCCCC2)CC2CCC1N2C (stereo not drawn) [Compound 93]
[1]
  inhibition at 1 µM: -5%
[2]
  inhibition at 1 µM: 4%
[3]
  inhibition at 1 µM: 7%
[4]
  inhibition at 1 µM: -4%

## CN1[C@@H]2CC[C@H]1c1c(n(CCc3ccc(F)cc3)c3ccc(F)cc13)C2 [Compound 94, (+)-(7S,10R)-2-Fluoro-5-(4-fluorophenethyl)-11-methyl-5,6,7,8,9,10-hexahydro-7,10-iminocyclohept[b]indole]
[1]
  inhibition at 1 µM: 4%
[2]
  inhibition at 1 µM: 92%
[3]
  inhibition at 1 µM: 75%
[4]
  inhibition at 1 µM: 21%

## CN1[C@H]2CC[C@@H]1c1c(n(CCc3ccc(F)cc3)c3ccc(F)cc13)C2 [Compound 95, (−)-(7R,10S)-2-Fluoro-5-(4-fluorophenethyl)-11-methyl-5,6,7,8,9,10-hexahydro-7,10-iminocyclohept[b]indole]
[1]
  inhibition at 1 µM: 8%
[2]
  inhibition at 1 µM: 55%
[3]
  inhibition at 1 µM: 55%
[4]
  inhibition at 1 µM: 41%

## CN1[C@@H]2CC[C@H]1c1c(n(CCc3ccc(C(F)(F)F)nc3)c3ccccc13)C2 [Compound 97]
[1]
  inhibition at 1 µM: 11%
[2]
  inhibition at 1 µM: 26%
[3]
  inhibition at 1 µM: 97%
[4]
  inhibition at 1 µM: 8%

## CN1[C@@H]2CC[C@H]1c1c(n(CC(C)(O)c3ccc(F)cc3)c3ccccc13)C2 (stereo partly drawn) [Compound 99]
[1]
  inhibition at 1 µM: 6%
[2]
  inhibition at 1 µM: 21%
[3]
  inhibition at 1 µM: 75%
[4]
  inhibition at 1 µM: -2%

## CN1[C@@H]2CC[C@H]1c1c(n(CC(=O)N3CCCCC3)c3ccccc13)C2 [Compound 101]
[1]
  inhibition at 1 µM: 19%
[2]
  inhibition at 1 µM: 48%
[3]
  inhibition at 1 µM: 94%
[4]
  inhibition at 1 µM: 15%

## Cc1ccc(CCn2c3c(c4ccccc42)[C@@H]2CC[C@H](C3)N2C)cn1 [Compound 102]
[1]
  inhibition at 1 µM: 3%
[2]
  inhibition at 1 µM: 52%
[3]
  inhibition at 1 µM: -6%
[4]
  inhibition at 1 µM: -5%

## Cc1ccc2c(c1)c1c(n2CCC#N)CC2CCC1N2C (stereo not drawn) [Compound 103]
[1]
  inhibition at 1 µM: 1%
[2]
  inhibition at 1 µM: 85%
[3]
  inhibition at 1 µM: 33%
[4]
  inhibition at 1 µM: 7%

## CN1C2CCC1c1c(n(CCC#N)c3ccc(Cl)cc13)C2 (stereo not drawn) [Compound 107]
[1]
  inhibition at 1 µM: -4%
[2]
  inhibition at 1 µM: 72%
[3]
  inhibition at 1 µM: 25%
[4]
  inhibition at 1 µM: -3%

## CN1C2CCC1c1c(n(CC(=O)c3ccccc3)c3ccc(Cl)cc13)C2 (stereo not drawn) [Compound 110]
[1]
  inhibition at 1 µM: 27%
[2]
  inhibition at 1 µM: 36%
[3]
  inhibition at 1 µM: 62%
[4]
  inhibition at 1 µM: 48%

## CN1C2CCC1c1c(n(CC(=O)c3ccc(Cl)cc3)c3ccc(Cl)cc13)C2 (stereo not drawn) [Compound 111]
[1]
  inhibition at 1 µM: 33%
[2]
  inhibition at 1 µM: 66%
[3]
  inhibition at 1 µM: 81%
[4]
  inhibition at 1 µM: 38%

## Cc1ccc2c(c1)c1c(n2CCc2nc(-c3ccccc3)cs2)CC2CCC1N2C (stereo not drawn) [Compound 114]
[1]
  inhibition at 1 µM: 10%
[2]
  inhibition at 1 µM: 93%
[3]
  inhibition at 1 µM: 59%
[4]
  inhibition at 1 µM: 29%

## C/C(=C\n1c2c(c3cc(C)ccc31)C1CCC(C2)N1C)c1ccc(Cl)cc1 (stereo not drawn) [Compound 116]
[1]
  inhibition at 1 µM: 81%
[2]
  inhibition at 1 µM: 23%
[3]
  inhibition at 1 µM: 97%
[4]
  inhibition at 1 µM: 10%
